# “Also recorded” adds a separate entry of the source. Square brackets hold non-standard residues; d marks the D form. Peptide text beside a SMILES is read from it. * marks the point of attachment. sY = N[C@@H](Cc1ccc(OS(=O)(=O)O)cc1)C(=O)O; Cbz = O=C(OCc1ccccc1)*; Boc = CC(C)(C)OC(=O)*
# Legend:
# [1] = system: CCK receptor; conditions: background literature; cited from earlier work
# [2] = target: T1, CCK receptor, brain (cerebral cortex) (Cavia porcellus, UniProt H0VZC5); assay: CCK Receptor Binding (Brain): inhibition of 125I-CCK(-33) binding; parameters: species or system guinea pig (Male Hartley); conditions: guinea pig cerebral cortex membranes
# T1 construct: Cerebral cortex was dissected and used as a receptor source; from tissue; host or cells: guinea pig cerebral cortex membranes
# T1 sequence (H0VZC5 1-426): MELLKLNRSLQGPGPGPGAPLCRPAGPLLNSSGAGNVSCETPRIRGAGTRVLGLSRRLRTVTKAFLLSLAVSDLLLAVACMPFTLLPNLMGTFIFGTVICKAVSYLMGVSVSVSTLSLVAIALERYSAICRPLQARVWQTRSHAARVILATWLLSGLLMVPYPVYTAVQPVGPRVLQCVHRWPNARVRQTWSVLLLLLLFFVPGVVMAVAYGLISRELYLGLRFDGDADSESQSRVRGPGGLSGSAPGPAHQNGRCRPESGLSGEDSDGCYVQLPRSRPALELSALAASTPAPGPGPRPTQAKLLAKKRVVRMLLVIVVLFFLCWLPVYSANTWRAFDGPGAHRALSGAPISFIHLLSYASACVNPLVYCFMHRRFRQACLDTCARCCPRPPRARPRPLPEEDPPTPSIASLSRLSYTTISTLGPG
# Method: 2. CCK Receptor Binding (Brain)
# CCK-33 was radiolabeled and the binding was performed according to the description for the pancreas method with modifications according to Saito et al., J. Neurochem. 37:483-490, 1981.
# Male Hartley guinea pigs (300-500 g) were sacrificed by decapitation and the brains were removed and placed in ice-cold 50 mM, Tris HCl plus 7.58 g/l Trizma-7.4 (pH 7.4 at 25° C.). Cerebral cortex was dissected and used as a receptor source. Each gram of fresh guinea pig brain tissue was homogenized in 10 ml of Tris/Trizma buffer with a Brinkman polytron PT-10. The homogenates were centrifuged at 42,000 g for 15 minutes. Pellets were resuspended in Tris Buffer, centrifuged as above and resuspended in 200 volumes of binding assay buffer (10 mM N-2-hydroxyethyl-piperazine-N'-2-ethane sulfonic acid (HEPES), 5 mM MgCl2, 0.25 mg/ml bacitracin, 1 mM ethylene glycol-bis-(β-aminoethylether-N,N'-tetraadetic acid) (EGTA), and 0.4% bovine serum albumin (BSA)). […] All assays were run in duplicate or triplicate. The reaction mixtures were incubated at 25° C. for 2 hours and centrifuged in a Beckman Microfuge (4 minutes) immediately after adding 1 ml of ice-cold incubation buffer. The supernatant was aspirated and discarded, pellets were counted with a Beckman gamma 5000.
# [3] = target: T2, CCK receptor, pancreas (Rattus norvegicus, UniProt P30551); assay: CCK Receptor Binding (Pancreas): inhibition of 125I-CCK(-33) binding; parameters: species or system rat (Male Sprague-Dawley); conditions: protease inhibitors added to the binding assay
# T2 construct: The whole pancreas was dissected free of fat tissue and was homogenized; from tissue; host or cells: rat pancreas membranes
# T2 sequence (P30551 1-444): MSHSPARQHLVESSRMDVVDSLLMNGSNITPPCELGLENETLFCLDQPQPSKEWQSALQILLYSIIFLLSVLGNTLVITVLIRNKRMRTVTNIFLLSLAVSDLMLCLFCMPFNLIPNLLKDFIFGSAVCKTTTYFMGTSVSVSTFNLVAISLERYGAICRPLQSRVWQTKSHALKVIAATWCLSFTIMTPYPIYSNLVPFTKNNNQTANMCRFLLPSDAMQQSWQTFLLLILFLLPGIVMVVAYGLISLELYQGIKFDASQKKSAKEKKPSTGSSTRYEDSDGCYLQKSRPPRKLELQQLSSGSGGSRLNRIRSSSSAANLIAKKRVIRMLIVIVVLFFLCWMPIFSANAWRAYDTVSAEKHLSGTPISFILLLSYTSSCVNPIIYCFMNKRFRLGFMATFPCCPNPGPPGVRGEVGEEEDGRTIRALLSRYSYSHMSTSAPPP
# Method: 1. CCK Receptor Binding (Pancreas)
# CCK-33 was radiolabeled with ^125 I-Bolton Hunter reagent (2000 Ci/mmole) as described by Sankara et al. (J. Biol. Chem. 254: 9349-9351, 1979). Receptor binding was performed according to Innis and Snyder (Proc. Natl. Acad. Sci. 77, 6917-6921, 1980) with the minor modification of adding the additional protease inhibitors, phenylmethane sulfonyl fluoride and o-phenanthroline. The latter two compounds have no effect on the ^125 -CCK receptor binding assay.
# Male Sprague-Dawley rats (200-350 g) were sacrificed by decapitation. The whole pancreas was dissected free of fat tissue and was homogenized in 20 volumes of ice-cold 50 mM, Tris HCl (pH 7.7 at 25° C.) with a Brinkmann Polytron PT 10. The homogenates were centrifuged at 48,000 g for 10 min. Pellets were resuspended in Tris Buffer, centrifuged as above and resuspended in 200 volumes of binding assay buffer (50 mM Tris HCl, pH 7.7 at 25° C., 5 mM dithiothrietol, 0.1 mM bacitracin, 1.2 mM phenylmethane sulfonyl fluoride and 0.5 mM o-phenanthroline). […] All assays were run in duplicate or triplicate. The reaction mixtures were incubated at 37° C. for 30 minutes and centrifuged in a Beckman Microfuge (4 minutes) immediately after adding 1 ml of ice-cold incubation buffer. The supernatant was aspirated and discarded, pellets were counted with a Beckman gamma 5000. […]
# [4] = system: gastrin; conditions: background literature; in vitro; cited from earlier work
SMILES,CCK antagonism (in words) [1],also measured
CSCC[C@H](NC(=O)OC(C)(C)C)C(=O)N[C@@H](CC(=O)O)C(=O)N[C@@H](Cc1ccccc1)C(N)=O [Boc-Met-Asp-Phe-NH2] (Boc-Met-Asp-Phe-NH2),can function as CCK antagonists,
CSCC[C@H](NC(=O)[C@H](Cc1ccc(OS(=O)(=O)O)cc1)NC(=O)OCc1ccccc1)C(=O)NCC(=O)N[C@@H](Cc1c[nH]c2ccccc12)C(=O)N[C@@H](CCSC)C(=O)N[C@@H](CC(=O)O)C(N)=O [Cbz-Tyr(SO3 H)-Met-Gly-Trp-Met-Asp-NH2] (Cbz-[sY]MGWMD-NH2),can function as CCK antagonists; also recorded: partial agonist,
"CN1C(=O)[C@@H](NC(=O)c2cc3cc(O)ccc3[nH]2)N=C(c2ccccc2)c2ccccc21 [Example 15, 1,3-Dihydro-3-(5-hydroxyindole-2-carbonylamino)-1-methyl-5-phenyl-2H-1,4-benzodiazepin-2-one]",,IC50 [2]: 910 nM
CSCC[C@H](N)C(=O)N[C@@H](CC(=O)O)C(=O)N[C@@H](Cc1ccccc1)C(N)=O [Met-Asp-Phe-NH2] (H-Met-Asp-Phe-NH2),can function as CCK antagonists,
CCCC(=O)Nc1nc2c(ncn2[C@@H]2O[C@@H]3COP(=O)(O)O[C@H]3[C@H]2OC(=O)CCC)c(=O)[nH]1 [dibutyryl cyclic GMP],the most potent,
c1cnc2c(c1)ccc1cccnc12 [o-phenanthroline],,effect on the 125-CCK receptor binding assay [3]: no effect
O=S(=O)(F)Cc1ccccc1 [phenylmethane sulfonyl fluoride],,effect on the 125-CCK receptor binding assay [3]: no effect
CCCN(CCC)C(=O)C(CCC(=O)O)NC(=O)c1ccccc1 (centres unmarked) [proglumide],,gastrin antagonism (in words) [4]: very weak in vitro antagonists

# From patent US5324726A, “Benzodiazepine analogs” (Merck & Co., Inc., priority 1992, dated 1994)
